Source: patent US9084782B2, “Chemical inhibitors of cholesterol biosynthesis and venous angiogenesis” (The Regents of the University of California, priority 2011, dated 2015)

What was measured:
[1] = test system: Tg(kdrl:GFP) zebrafish embryos; experiment: Caudal vein plexus (CVP) formation / venous angiogenesis in Tg(kdrl:GFP) zebrafish embryos; assay type: in vivo; conditions: for anti-angiogenetic activity of aplexone analogs (inhibition of CVP formation / venous angiogenesis): SAR study, compared with aplexone; for ranking in the angiogenesis test: compounds of FIG. 11
Source text: Images of GFP expression in Tg(kdrl:GFP) embryos were acquired using a Zeiss SV-11 epifluorescence microscope. Confocal images were acquired using a Carl Zeiss Laser Scanning Systems LSM510 equipped with 20× air, 20× water or 40× water immersion objectives. For single time point confocal images, embryos were anesthetized with 0.01% tricaine and embedded in 1% agarose. When capturing time-lapse confocal movies, embryos were mounted in 3.5% methylcellulose (Sigma-Aldrich) and imaged for 5 hrs on a heated stage at 28.5° C. The images obtained were analyzed using the Zeiss LSM Image Brower version 4 and Image J.
A synthetic chemical library containing 168 compounds (Castellano et al., 2007) and 300 chemicals from Biomol International LP, consisting of 72 ion channel inhibitors (Cat No. 2805), 84 kinase/phosphatase inhibitors (Cat No. 2831), 84 orphan ligands (Cat No. 2825), and 60 endocannabinoids (Cat No. 2801) were screened. The synthetic small molecules were prepared through nucleophilic phosphine catalysis of allenoates (Zhu et al., 2003). Four Tg(kdrl:GFP) embryos were placed into each well of 96-well plates containing a 10 μM solution of each chemical compound dissolved in embryo buffer with 0.1% DMSO. The embryos were raised at 28.5° C. and examined for defects in blood vessel development at 1 and 2 days after treatment. Standard parameters such as numbers of somites and head to body angle were used to determine the stages of zebrafish embryos (Kimmel et al., 1995).
Aplexone treatment described in this study was carried out at a concentration of 10 μM starting at 10 hpf unless otherwise specified.
8 ng tnnt2 MO (Gene Tools) (Sehnert et al., 2002), 3 nl of 4 mM GGTI-2133 (Calbiochem), 3 nl of 5 mM L744,832 (Calbiochem) and 1 nl of 2M mevalonate (Sigma-Aldrich) were injected into 1-2 cell stage embryos.
The library of 168 compounds^24 prepared through the nucleophilic phosphine catalysis of allenes were screened using Tg(kdrl:GFP) zebrafish. Four embryos were placed in each well of 96-well plates containing a 10 uM solution of each chemical compound dissolved in embryo buffer with 0.1% DMSO. The embryos were raised at 28.5° C. and defects in blood vessel development were examined at 1 and 2 days after fertilization.

[2] = test system: HMGCR pathway; experiment: Cholesterol assay in embryo lysate (Amplex Red); assay type: in vivo, zebrafish; conditions: relative to 0.4% DMSO control
Method: The yolk was removed from embryos by vortexing in calcium-free Ringer's solution with 1 mM EDTA at 4° C. The embryos were then pelleted and washed with fresh calcium free Ringer's solution 5 times before being resuspended in cholesterol assay reaction buffer and were then lysed by sonication using a Sonifier 450 (Branson). Cholesterol levels in the embryo lysate were measured with an Amplex Red Cholesterol Assay Kit (Invitrogen) and Flex station II (Bucher Biotec). The total protein concentration of the embryo lysate was measured using a DC protein assay (Bio-Rad Laboratories) and SpectraMax plus (Molecular Devices).

Cc1ccc(S(=O)(=O)N2CC(C(C)O)=CC[C@@H]2c2ccccc2)cc1 (stereo partly shown) [Compound 6]
anti-angiogenetic activity of aplexone analogs (inhibition of CVP formation / venous angiogenesis) [1]: did not inhibit the CVP formation

C=CCCC(=O)C1=CCC(c2ccccc2)N(S(=O)(=O)c2ccc(C)cc2)C1 (stereo not shown) [Compound 8]
anti-angiogenetic activity of aplexone analogs (inhibition of CVP formation / venous angiogenesis) [1]: showed the bioactivity of aplexone albeit to a lesser extent

CC(=O)C1=CCC(c2ccccc2)NC1 (stereo not shown) [Compound 11]
anti-angiogenetic activity of aplexone analogs (inhibition of CVP formation / venous angiogenesis) [1]: failed to inhibit the formation of CVP

CC(=O)C1=CCC(c2ccccc2)N(Cc2ccccc2)C1 (stereo not shown) [Compound 12]
anti-angiogenetic activity of aplexone analogs (inhibition of CVP formation / venous angiogenesis) [1]: failed to inhibit the formation of CVP

CC(=O)C1=CCC(c2ccccc2)N(S(C)(=O)=O)C1 (stereo not shown) [Compound 13]
anti-angiogenetic activity of aplexone analogs (inhibition of CVP formation / venous angiogenesis) [1]: failed to inhibit the formation of CVP
anti-angiogenetic activity of aplexone analogs (inhibition of CVP formation / venous angiogenesis) ([1]; listed as AP13): normal venous angiogenesis
embryonic cholesterol levels [2]: normal cholesterol levels

CC(=O)C1=CCCN(S(=O)(=O)c2ccc(C)cc2)C1 [Compound 16]
anti-angiogenetic activity of aplexone analogs (inhibition of CVP formation / venous angiogenesis) [1]: developed a single-lumen caudal vein like aplexone, albeit in lower efficiency

CC(=O)C1=CCC(c2ccccc2)N(S(=O)(=O)c2ccccc2)C1 (stereo not shown) [Compound 17]
anti-angiogenetic activity of aplexone analogs (inhibition of CVP formation / venous angiogenesis) [1]: showed inhibitory activity for venous angiogenesis

CC(=O)C1=CCC(c2ccccc2)N(S(=O)(=O)c2ccccc2C)C1 (stereo not shown) [Compound 18]
anti-angiogenetic activity of aplexone analogs (inhibition of CVP formation / venous angiogenesis) [1]: without showing much decrease in the activity

CC(=O)C1=CCC(c2ccccc2)N(S(=O)(=O)c2cccc(C)c2)C1 (stereo not shown) [Compound 19]
anti-angiogenetic activity of aplexone analogs (inhibition of CVP formation / venous angiogenesis) [1]: without showing much decrease in the activity

CC(=O)C1=CCC(c2ccccc2)N(S(=O)(=O)c2ccc(Cl)cc2)C1 (stereo not shown) [Compound 20]
anti-angiogenetic activity of aplexone analogs (inhibition of CVP formation / venous angiogenesis) [1]: showed inhibitory activity for venous angiogenesis

CC(=O)C1=CCC(c2ccc(F)cc2)N(S(=O)(=O)c2ccc(C)cc2)C1 (stereo not shown) [Compound 24]
anti-angiogenetic activity of aplexone analogs (inhibition of CVP formation / venous angiogenesis) [1]: abolished the biological activity

CC(=O)C1=CCC(c2ccc(Cl)cc2)N(S(=O)(=O)c2ccc(C)cc2)C1 (stereo not shown) [Compound 25]
anti-angiogenetic activity of aplexone analogs (inhibition of CVP formation / venous angiogenesis) [1]: diminished the antiangiogenic activity

CC(=O)C1=CCC(c2ccc(C)cc2)N(S(=O)(=O)c2ccc(C)cc2)C1 (stereo not shown) [Compound 26]
anti-angiogenetic activity of aplexone analogs (inhibition of CVP formation / venous angiogenesis) [1]: active
ranking in the angiogenesis test [1]: most active

CC(=O)C1=CCC(c2ccc(Cl)c(Cl)c2)N(S(=O)(=O)c2ccc(C)cc2)C1 (stereo not shown) [Compound 31]
anti-angiogenetic activity of aplexone analogs (inhibition of CVP formation / venous angiogenesis) [1]: not active

CC(=O)C1=CCC(c2ccc3c(c2)OCO3)N(S(=O)(=O)c2ccc(C)cc2)C1 (stereo not shown) [Compound 32]
anti-angiogenetic activity of aplexone analogs (inhibition of CVP formation / venous angiogenesis) [1]: not active

CC(=O)C1=CCC(c2cccs2)N(S(=O)(=O)c2ccc(C)cc2)C1 (stereo not shown) [Compound 33]
anti-angiogenetic activity of aplexone analogs (inhibition of CVP formation / venous angiogenesis) [1]: active
ranking in the angiogenesis test [1]: most active

CC(=O)C1=CCC(c2ccco2)N(S(=O)(=O)c2ccc(C)cc2)C1 (stereo not shown) [Compound 34]
anti-angiogenetic activity of aplexone analogs (inhibition of CVP formation / venous angiogenesis) [1]: inactive

CC(=O)C1=CCC(c2ccc(C)o2)N(S(=O)(=O)c2ccc(C)cc2)C1 (stereo not shown) [Compound 35]
anti-angiogenetic activity of aplexone analogs (inhibition of CVP formation / venous angiogenesis) [1]: inactive

CC(=O)C1=CCC(c2cccn2C)N(S(=O)(=O)c2ccc(C)cc2)C1 (stereo not shown) [Compound 36]
anti-angiogenetic activity of aplexone analogs (inhibition of CVP formation / venous angiogenesis) [1]: inactive

CC(=O)C1=CCC(c2cccc3ccccc23)N(S(=O)(=O)c2ccc(C)cc2)C1 (stereo not shown) [Compound 37]
anti-angiogenetic activity of aplexone analogs (inhibition of CVP formation / venous angiogenesis) [1]: inactive

CC(C)C[C@H](NC(=O)c1ccc(NCc2cnc[nH]2)cc1-c1cccc2ccccc12)C(=O)O [GGTI-2133, reference compound]
CVP formation ([1]; 3 nl of 4 mM GGTI-2133 injected at 1-2 cell stage, 48 hpf): CVP phenotypes reminiscent of aplexone treatment

CC[C@H](C)[C@@H](CO[C@@H](Cc1ccccc1)C(=O)N[C@@H](CCS(C)(=O)=O)C(=O)OC(C)C)NC[C@@H](N)CS [L744,832, reference compound]
CVP formation ([1]; 3 nl of 5 mM L744,832 injected at 1-2 cell stage, 48 hpf): does not affect the formation of the CVP

c1ccc2c(-c3ccncc3)c[nH]c2c1 [Rockout, reference compound]
CVP formation ([1]; 50 μM Rockout, 48 hpf): recapitulated the caudal vein phenotype of aplexone treatment

CC(C)c1c(C(=O)Nc2ccccc2)c(-c2ccccc2)c(-c2ccc(F)cc2)n1CC[C@@H](O)C[C@@H](O)CC(=O)O [atorvastatin, reference compound]
CVP formation at suboptimal level ([1]; 2 μM single agent): normal CVP
CVP formation ([1]; atorvastatin-treated embryos, from 10 hpf, imaged at 48 hpf): phenotypes similar to those observed in embryos exposed to aplexone
embryonic cholesterol levels [2]: reduce cholesterol level significantly

CC(O)(CCO)CC(=O)O (stereo not shown) [mevalonate, reference compound]
effect on aplexone's inhibition of CVP formation ([1]; 1 nl of 2M mevalonate injected, 5 μM aplexone from 2 hpf): blocks the inhibitory effects of aplexone
